This note sets out measurements from PubChem BioAssay AID220 (DTP/NCI, 2004).

The test deals with CD8F1 mice, subcutaneous mammary adenocarcinoma, T/C%. Briefly: NCI In Vivo Anticancer Drug Screen. Data for tumor model Mammary Adenocarcinoma CD8F1 (subcutaneous) in CD8F1. The following applies: higher = larger tumour. In outline:
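Transplantable tumors were established in mice, animals were dosed with compound or vehicle, and survival or tumor size was then measured in both groups. The treated result was divided by the control result.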

Where [1] appears, read: endpoint: median tumor weight (est.), dose: 12.5 mg/kg/injection, schedule: Q07DX005 (ip), vehicle: suspension in saline.
[2] abbreviates: endpoint: median tumor weight (est.), dose: 25.0 mg/kg/injection, schedule: Q07DX005 (ip), vehicle: suspension in saline.
Where [3] appears, read: endpoint: median tumor weight change, dose: 62.5 mg/kg/injection, schedule: Q01DX001 (ip), vehicle: Klucel (hydroxypropylcellulose) (HPC).
Setting [4] is: endpoint: median tumor weight change, dose: 125.0 mg/kg/injection, schedule: Q01DX001 (ip), vehicle: Klucel (hydroxypropylcellulose) (HPC).
The mark [5] stands for this setting: endpoint: median tumor weight (est.), dose: 12.5 mg/kg/injection, schedule: Q07DX005 (ip), vehicle: Klucel (hydroxypropylcellulose) (HPC).
Where [6] appears, read: endpoint: median tumor weight (est.), dose: 25.0 mg/kg/injection, schedule: Q07DX005 (ip), vehicle: Klucel (hydroxypropylcellulose) (HPC).
Setting [7] is: endpoint: median tumor weight (est.), dose: 50.0 mg/kg/injection, schedule: Q07DX005 (ip), vehicle: Klucel (hydroxypropylcellulose) (HPC).

Structures are written as SMILES. Values joined by “and” are separate entries in the source; they are usually repeats but may differ in a detail not shown here. Equal entries are not always repeated. Inconclusive results are not listed.

`Cc1cc2nc3[nH]c4ccccc4c3nc2cc1C`: the T/C was 88 % of control under setting [1]; 52 % of control under setting [2]; 73 % of control (endpoint: median tumor weight (est.), dose: 50.0 mg/kg/injection, schedule: Q07DX005 (ip), vehicle: suspension in saline); 81 % of control (endpoint: median tumor weight (est.), dose: 100.0 mg/kg/injection, schedule: Q07DX005 (ip), vehicle: suspension in saline); 88 % of control (endpoint: median tumor weight (est.), dose: 200.0 mg/kg/injection, schedule: Q07DX005 (ip), vehicle: suspension in saline); 100 % of control (endpoint: median tumor weight (est.), dose: 400.0 mg/kg/injection, schedule: Q07DX005 (ip), vehicle: suspension in saline).

Take `COc1nc(C(Cl)(Cl)Cl)c(Cl)c(OC)c1Cl`: the T/C is 32 % of control (endpoint: median tumor weight change, dose: 60.0 mg/kg/injection, schedule: Q01DX005 (ip), vehicle: Klucel (hydroxypropylcellulose) (HPC)); 174 % of control under setting [3]; 81 % of control and 95 % of control under setting [4]; -15 % of control (endpoint: median tumor weight change, dose: 200.0 mg/kg/injection, schedule: Q01DX005 (ip), vehicle: Klucel (hydroxypropylcellulose) (HPC)).

For the molecule `Cc1cn(C2CC(O)C(CO)O2)c(=O)[nH]c1=O` (centres undefined), the T/C reads like this: (endpoint: median tumor weight (est.), dose: 25.0 mg/kg/injection, schedule: Q07DX005 (ip), vehicle: saline) 88 % of control; (endpoint: median tumor weight (est.), dose: 50.0 mg/kg/injection, schedule: Q07DX005 (ip), vehicle: saline) 107 % of control.

For `CC(CN1CC(=O)NC(=O)C1)N1CC(=O)NC(=O)C1` (centres undefined), the T/C under setting [5] was 59 % of control; the T/C under setting [6] is 84 % of control; the T/C under setting [7] was 41 % of control; the T/C (endpoint: median tumor weight (est.), dose: 200.0 mg/kg/injection, schedule: Q07DX005 (ip), vehicle: Klucel (hydroxypropylcellulose) (HPC)) was 21 % of control and 29 % of control; the T/C (endpoint: median tumor weight (est.), dose: 400.0 mg/kg/injection, schedule: Q07DX005 (ip), vehicle: Klucel (hydroxypropylcellulose) (HPC)) was 5 % of control and 11 % of control.

In the case of `CSCS(=O)C[C@H](CO)NC(=O)/C=C/c1c(C)[nH]c(=O)[nH]c1=O` (some centres undefined), the T/C is 100 % of control (endpoint: median tumor weight (est.), dose: 0.12 mg/kg/injection, schedule: Q07DX005 (ip), vehicle: saline); 76 % of control (endpoint: median tumor weight (est.), dose: 0.25 mg/kg/injection, schedule: Q07DX005 (ip), vehicle: saline); 50 % of control (endpoint: median tumor weight (est.), dose: 0.5 mg/kg/injection, schedule: Q07DX005 (ip), vehicle: saline); 10 % of control (endpoint: median tumor weight (est.), dose: 4.0 mg/kg/injection, schedule: Q07DX005 (ip), vehicle: saline).

For the molecule `C[C@]12CC[C@H]3[C@@H](CCC4=C[C@@H](OC5OCC(OC6OC(CO)C(O)C(O)C6O)C(O)C5O)CC[C@@]43C=O)[C@@]1(O)CCC2C1=CC(=O)OC1` (some centres undefined), the T/C runs as follows: (endpoint: median tumor weight (est.), dose: 0.62 mg/kg/injection, schedule: Q07DX005 (ip), vehicle: Klucel (hydroxypropylcellulose) (HPC)) 63 % of control; (endpoint: median tumor weight (est.), dose: 1.25 mg/kg/injection, schedule: Q07DX005 (ip), vehicle: Klucel (hydroxypropylcellulose) (HPC)) 85 % of control and 89 % of control; (endpoint: median tumor weight (est.), dose: 10.0 mg/kg/injection, schedule: Q07DX005 (ip), vehicle: Klucel (hydroxypropylcellulose) (HPC)) 93 % of control and 108 % of control; (endpoint: median tumor weight (est.), dose: 20.0 mg/kg/injection, schedule: Q07DX005 (ip), vehicle: Klucel (hydroxypropylcellulose) (HPC)) 106 % of control; (endpoint: median tumor weight (est.), dose: 40.0 mg/kg/injection, schedule: Q07DX005 (ip), vehicle: Klucel (hydroxypropylcellulose) (HPC)) 93 % of control.

Consider `CC(Cc1ccc(O)c(O)c1)C(C)Cc1ccc(O)c(O)c1` (centres undefined), for which the T/C reads like this: (endpoint: median tumor weight change, dose: 500.0 mg/kg/injection, schedule: Q01DX001 (ip), vehicle: saline) 123 % of control; (endpoint: median tumor weight change, dose: 1000.0 mg/kg/injection, schedule: Q01DX001 (ip), vehicle: saline) 57 % of control.

`COc1cccc2c1C(=O)c1c(O)c3c(c(O)c1C2=O)C[C@@](O)(C(C)=O)C[C@@H]3OC1CC(N(C)C)C(O)C(C)O1` (some centres undefined): the T/C (endpoint: mean tumor weight, dose: 1.0 mg/kg/injection, schedule: Q07DX006 (ip), vehicle: water) is 197 % of control; the T/C (endpoint: mean tumor weight, dose: 2.0 mg/kg/injection, schedule: Q07DX006 (ip), vehicle: water) is 73 % of control; the T/C (endpoint: mean tumor weight, dose: 4.0 mg/kg/injection, schedule: Q07DX006 (ip), vehicle: water) was 30 % of control; the T/C (endpoint: mean tumor weight, dose: 8.0 mg/kg/injection, schedule: Q07DX006 (ip), vehicle: water) is 1 % of control; the T/C (endpoint: median tumor weight (est.), dose: 1.0 mg/kg/injection, schedule: Q07DX005 (ip), vehicle: water) is 108 % of control; the T/C (endpoint: median tumor weight (est.), dose: 2.0 mg/kg/injection, schedule: Q07DX005 (ip), vehicle: water) is 63 % of control. In addition, the T/C is 45 % of control (endpoint: median tumor weight (est.), dose: 4.0 mg/kg/injection, schedule: Q07DX005 (ip), vehicle: water) and 42 % of control (endpoint: median tumor weight (est.), dose: 8.0 mg/kg/injection, schedule: Q07DX005 (ip), vehicle: water).

Take `CC(=O)C(=O)O.CC(=O)C(=O)O.[NH-]C1CCCCC1[NH-].[Pt+2]` (centres undefined): the T/C was 70 % of control (endpoint: median tumor weight change, dose: 15.0 mg/kg/injection, schedule: Q01DX001 (ip), vehicle: dextrose); 79 % of control (endpoint: median tumor weight change, dose: 30.0 mg/kg/injection, schedule: Q01DX001 (ip), vehicle: dextrose); 51 % of control (endpoint: median tumor weight change, dose: 60.0 mg/kg/injection, schedule: Q01DX001 (ip), vehicle: dextrose); -38 % of control (endpoint: median tumor weight change, dose: 62.5 mg/kg/injection, schedule: Q01DX001 (ip), vehicle: dextrose); 45 % of control (endpoint: median tumor weight change, dose: 120.0 mg/kg/injection, schedule: Q01DX001 (ip), vehicle: dextrose).

Take `O=[N+]([O-])c1ccc(N2CCOCC2)c2c1no[n+]2[O-]`: the T/C runs as follows: (endpoint: median tumor weight change, dose: 62.5 mg/kg/injection, schedule: Q01DX001 (ip), vehicle: saline with Tween-80) 100 % of control; (endpoint: median tumor weight change, dose: 125.0 mg/kg/injection, schedule: Q01DX001 (ip), vehicle: saline with Tween-80) 114 % of control; (endpoint: median tumor weight change, dose: 250.0 mg/kg/injection, schedule: Q01DX001 (ip), vehicle: saline with Tween-80) 43 % of control; (endpoint: median tumor weight change, dose: 500.0 mg/kg/injection, schedule: Q01DX001 (ip), vehicle: saline with Tween-80) 56 % of control.

As to `COC(=O)[C@@]12OC[C@]34[C@H]([C@@H](O)[C@@H]1O)[C@@]1(C)CC(=O)C(O)=C(C)[C@@H]1C[C@H]3OC(=O)[C@H](OC(=O)/C=C(/C)C(C)(C)O)[C@@H]24`, the T/C (endpoint: median tumor weight (est.), dose: 0.05 mg/kg/injection, schedule: Q07DX005 (ip), vehicle: saline) was 92 % of control; the T/C (endpoint: median tumor weight (est.), dose: 0.1 mg/kg/injection, schedule: Q07DX005 (ip), vehicle: saline) was 88 % of control; the T/C (endpoint: median tumor weight (est.), dose: 0.2 mg/kg/injection, schedule: Q07DX005 (ip), vehicle: saline) was 67 % of control; the T/C (endpoint: median tumor weight (est.), dose: 0.4 mg/kg/injection, schedule: Q07DX005 (ip), vehicle: saline) was 100 % of control; the T/C (endpoint: median tumor weight (est.), dose: 0.8 mg/kg/injection, schedule: Q07DX005 (ip), vehicle: saline) is 90 % of control.

Turning to `Nc1n[n+](-c2ccccc2)no1`, the T/C was 82 % of control (endpoint: median tumor weight (est.), dose: 3.12 mg/kg/injection, schedule: Q07DX005 (ip), vehicle: water); 10 % of control and 34 % of control (endpoint: median tumor weight (est.), dose: 50.0 mg/kg/injection, schedule: Q07DX005 (ip), vehicle: water); 39 % of control (endpoint: median tumor weight change, dose: 16.0 mg/kg/injection, schedule: Q01DX001 (ip), vehicle: water); 70 % of control (endpoint: median tumor weight change, dose: 31.0 mg/kg/injection, schedule: Q01DX001 (ip), vehicle: water); 35 % of control (endpoint: median tumor weight change, dose: 62.0 mg/kg/injection, schedule: Q01DX001 (ip), vehicle: water).

For `CN(C)CCCNc1c2ccccc2nc2cccc([N+](=O)[O-])c12`, the T/C is 90 % of control (endpoint: median tumor weight (est.), dose: 0.06 mg/kg/injection, schedule: Q07DX004 (ip), vehicle: saline) and 86 % of control (endpoint: median tumor weight (est.), dose: 15.0 micrograms/kg/injection, schedule: Q07DX005 (ip), vehicle: saline).

For `Nc1ccc2nc3ccc(N)cc3[n+](-c3ccccc3)c2c1`, the T/C runs as follows: (endpoint: median tumor weight (est.), dose: 6.25 mg/kg/injection, schedule: Q07DX005 (ip), vehicle: Klucel (hydroxypropylcellulose) (HPC)) 90 % of control; (endpoint: median tumor weight (est.), dose: 6.25 mg/kg/injection, schedule: Q07DX005 (ip), vehicle: suspension in saline) 72 % of control; under setting [5], 35 % of control; under setting [1], 64 % of control; under setting [6], 80 % of control; under setting [2], 95 % of control. For the same molecule, the T/C under setting [7] was 45 % of control.

Take `CS(=O)(=O)CS(=O)(=O)OCCCl`: the T/C reads like this: (endpoint: median tumor weight change, dose: 125.0 mg/kg/injection, schedule: Q01DX001 (ip), vehicle: suspension in saline) 56 % of control; (endpoint: median tumor weight change, dose: 250.0 mg/kg/injection, schedule: Q01DX001 (ip), vehicle: suspension in saline) 68 % of control.

As for `O=C(CC(=O)C(F)(F)F)c1csc2ccccc12`, the T/C by setting is: (endpoint: median tumor weight change, dose: 31.25 mg/kg/injection, schedule: Q01DX001 (ip), vehicle: Klucel (hydroxypropylcellulose) (HPC)) 35 % of control; under setting [3], 39 % of control; under setting [4], 65 % of control.
